From patent US7220744B2, “Monocyclic substituted phenyl methanones” (Hoffman-La Roche Inc., priority 2005, dated 2007)

Biological target: T1, mGlyT-1b (Mus musculus, UniProt P28571)
T1 construct: host or cells: Flp-in-CHO cells (vendor and catalogue number are those of the host cell line)
T1 sequence (P28571 1-651 isoform P28571-2): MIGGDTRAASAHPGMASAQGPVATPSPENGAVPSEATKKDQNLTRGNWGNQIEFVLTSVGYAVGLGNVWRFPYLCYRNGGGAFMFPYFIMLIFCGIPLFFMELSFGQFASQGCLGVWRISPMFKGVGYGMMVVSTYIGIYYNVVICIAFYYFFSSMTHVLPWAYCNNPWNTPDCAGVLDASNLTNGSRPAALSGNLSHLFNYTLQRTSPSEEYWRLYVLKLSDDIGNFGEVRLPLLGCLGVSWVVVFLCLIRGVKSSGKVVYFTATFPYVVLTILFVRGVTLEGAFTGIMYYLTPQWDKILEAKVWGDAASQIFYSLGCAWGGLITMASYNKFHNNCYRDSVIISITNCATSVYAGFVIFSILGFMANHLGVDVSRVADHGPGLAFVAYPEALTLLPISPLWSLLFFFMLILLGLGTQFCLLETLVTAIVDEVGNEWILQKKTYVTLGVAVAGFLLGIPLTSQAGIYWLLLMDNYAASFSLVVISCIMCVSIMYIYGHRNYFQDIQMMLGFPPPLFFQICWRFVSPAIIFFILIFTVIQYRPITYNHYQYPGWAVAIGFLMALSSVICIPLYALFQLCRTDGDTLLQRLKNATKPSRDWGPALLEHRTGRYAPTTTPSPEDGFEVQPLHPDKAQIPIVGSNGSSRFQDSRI
Assay: Glycine Uptake Inhibition Assay (mGlyT-1b)
Assay type: cell-based
Conditions: inhibition of [3H]-glycine uptake in Flp-in-CHO cells transfected with mGlyT-1b cDNA; 20 min preincubation at 22° C.; read-out: IC50 (μM) at GlyT-1
Protocol: DMEM complete medium: Nutrient mixture F-12 (Gibco Life-technologies), fetal bovine serum (FBS) 5%, (Gibco life technologies), Penicillin/Streptomycin 1% (Gibco life technologies), Hygromycin 0.6 mg/ml (Gibco life technologies), Glutamine 1 mM Gibco life technologies)
Uptake buffer (UB): 150 mM NaCl, 10 mM Hepes-Tris, pH 7.4, 1 mM CaCl2, 2.5 mM KCl, 2.5 mM MgSO4, 10 mM (+) D-glucose.
Flp-in™-CHO (Invitrogen Cat n° R758-07) cells stably transfected with mGlyT1b cDNA.
Glycine Uptake Inhibition Assay (mGlyT-1b)
On day 1 mammalian cells, (Flp-in™-CHO), transfected with mGlyT-1b cDNA, were plated at the density of 40,000 cells/well in complete F-12 medium, without hygromycin in 96-well culture plates. On day 2, the medium was aspirated and the cells were washed twice with uptake buffer (UB). The cells were then incubated for 20 min at 22° C. with either (i) no potential competitor, (ii) 10 mM non-radioactive glycine, (iii) a concentration of a potential inhibitor. A range of concentrations of the potential inhibitor was used to generate data for calculating the concentration of inhibitor resulting in 50% of the effect (e.g. IC50, the concentration of the competitor inhibiting glycine uptake of 50%). A solution was then immediately added containing [^3H]-glycine 60 nM (11–16 Ci/mmol) and 25 μM non-radioactive glycine. The plates were incubated with gentle shaking and the reaction was stopped by aspiration of the mixture and washing (three times) with ice-cold UB. The cells were lysed with scintillation liquid, shaken 3 hours and the radioactivity in the cells was counted using a scintillation counter.

Row | SMILES | IC50 [µM]
1 | CC(C)Oc1ccc(S(C)(=O)=O)cc1C(=O)N1CCN(c2ncc(S(=O)(=O)c3ccccc3)s2)CC1 [Example 4, [4-(5-Benzenesulfonyl-thiazol-2-yl)-piperazin-1-yl]-(2-isopropoxy-5-methanesulfonyl-phenyl)-methanone] | 0.061
2 | CC(Oc1ccc(S(C)(=O)=O)cc1C(=O)N1CCN(c2ncc(C#N)s2)CC1)C(F)(F)F (stereo not drawn) [Example 10, 2-{4-[5-Methanesulfonyl-2-(2,2,2-trifluoro-1-methyl-ethoxy)-benzoyl]-piperazin-1-yl}-thiazole-5-carbonitrile] | 0.082
3 | CS(=O)(=O)c1ccc(OCC2CCC2)c(C(=O)N2CCN(c3ncc(C#N)s3)CC2)c1 [Example 14, 2-[4-(2-Cyclobutylmethoxy-5-methanesulfonyl-benzoyl)-piperazin-1-yl]-thiazole-5-carbonitrile] | 0.083
4 | CC(C)COc1ccc(S(C)(=O)=O)cc1C(=O)N1CCN(c2ncc(C#N)s2)CC1 [Example 16, 2-[4-(2-Isobutoxy-5-methanesulfonyl-benzoyl)-piperazin-1-yl]-thiazole-5-carbonitrile] | 0.065
5 | CC(C)(C)COc1ccc(S(C)(=O)=O)cc1C(=O)N1CCN(c2ncc(C#N)s2)CC1 [Example 19, 2-{4-[2-(2,2-Dimethyl-propoxy)-5-methanesulfonyl-benzoyl]-piperazin-1-yl}-thiazole-5-carbonitrile] | 0.043
6 | CC(C)(C)COc1ccc(S(C)(=O)=O)cc1C(=O)N1CCN(c2ncc(S(=O)(=O)c3ccccc3)s2)CC1 [Example 29, [4-(5-Benzenesulfonyl-thiazol-2-yl)-piperazin-1-yl]-[2-(2,2-dimethyl-propoxy)-5-methanesulfonyl-phenyl]-methanone] | 0.017
7 | CS(=O)(=O)c1ccc(OC2CCCC2)c(C(=O)N2CCN(c3ncc(S(=O)(=O)c4ccccc4)s3)CC2)c1 [Example 30, [4-(5-Benzenesulfonyl-thiazol-2-yl)-piperazin-1-yl]-(2-cyclopentyloxy-5-methanesulfonyl-phenyl)-methanone] | 0.023
8 | CC(C)COc1ccc(S(C)(=O)=O)cc1C(=O)N1CCN(c2ncc(S(=O)(=O)c3ccccc3)s2)CC1 [Example 31, [4-(5-Benzenesulfonyl-thiazol-2-yl)-piperazin-1-yl]-(2-isobutoxy-5-methanesulfonyl-phenyl)-methanone] | 0.024
9 | CCCCS(=O)(=O)c1cnc(N2CCN(C(=O)c3cc(S(C)(=O)=O)ccc3OC(C)C(F)(F)F)CC2)s1 (stereo not drawn) [Example 39, {4-[5-(Butane-1-sulfonyl)-thiazol-2-yl]-piperazin-1-yl}-[5-methanesulfonyl-2-(2,2,2-trifluoro-1-methyl-ethoxy)-phenyl]-methanone] | 0.07
10 | CCCCS(=O)(=O)c1cnc(N2CCN(C(=O)c3cc(S(C)(=O)=O)ccc3OC3CCCC3)CC2)s1 [Example 41, {4-[5-(Butane-1-sulfonyl)-thiazol-2-yl]-piperazin-1-yl}-(2-cyclopentyloxy-5-methanesulfonyl-phenyl)-methanone] | 0.018
11 | CCCCS(=O)(=O)c1cnc(N2CCN(C(=O)c3cc(S(C)(=O)=O)ccc3OCC(C)(C)C)CC2)s1 [Example 42, {4-[5-(Butane-1-sulfonyl)-thiazol-2-yl]-piperazin-1-yl}-[2-(2,2-dimethyl-propoxy)-5-methanesulfonyl-phenyl]-methanone] | 0.046
12 | Cc1sc(N2CCN(C(=O)c3cc(S(C)(=O)=O)ccc3OC(C)C(F)(F)F)CC2)nc1C(F)(F)F (stereo not drawn) [Example 55, [5-Methanesulfonyl-2-(2,2,2-trifluoro-1-methyl-ethoxy)-phenyl]-[4-(5-methyl-4-trifluoromethyl-thiazol-2-yl)-piperazin-1-yl]-methanone] | 0.073
13 | CC(Oc1ccc(S(C)(=O)=O)cc1C(=O)N1CCN(c2ncc(C(F)(F)F)s2)CC1)C(F)(F)F (stereo not drawn) [Example 59, [5-Methanesulfonyl-2-(2,2,2-trifluoro-1-methyl-ethoxy)-phenyl]-[4-(5-trifluoromethyl-thiazol-2-yl)-piperazin-1-yl]-methanone] | 0.098
14 | CC(C)(Oc1ccc(S(C)(=O)=O)cc1C(=O)N1CCN(c2ncc(C(F)(F)F)s2)CC1)C(F)(F)F [Example 66, [5-Methanesulfonyl-2-(2,2,2-trifluoro-1,1-dimethyl-ethoxy)-phenyl]-[4-(5-trifluoromethyl-thiazol-2-yl)-piperazin-1-yl]-methanone] | 0.061
15 | C[C@H](Oc1ccc(S(C)(=O)=O)cc1C(=O)N1CCN(c2ncc(C(F)(F)F)s2)CC1)C(F)(F)F [Example 67, [5-Methanesulfonyl-2-((S)-2,2,2-trifluoro-1-methyl-ethoxy)-phenyl]-[4-(5-trifluoromethyl-thiazol-2-yl)-piperazin-1-yl]-methanone] | 0.046
16 | C[C@@H](Oc1ccc(S(C)(=O)=O)cc1C(=O)N1CCN(c2ncc(C(F)(F)F)s2)CC1)C(F)(F)F [Example 68, [5-Methanesulfonyl-2-((R)-2,2,2-trifluoro-1-methyl-ethoxy)-phenyl]-[4-(5-trifluoromethyl-thiazol-2-yl)-piperazin-1-yl]-methanone] | 0.082
17 | CC(Oc1ccc(S(C)(=O)=O)cc1C(=O)N1CCN(c2ncc(CC(F)(F)F)s2)CC1)C(F)(F)F (stereo not drawn) [Example 69, [5-Methanesulfonyl-2-(2,2,2-trifluoro-1-methyl-ethoxy)-phenyl]-{4-[5-(2,2,2-trifluoro-ethyl)-thiazol-2-yl]-piperazin-1-yl}-methanone] | 0.056
18 | C[C@H](Oc1ccc(S(C)(=O)=O)cc1C(=O)N1CCN(c2ncc(CC(F)(F)F)s2)CC1)C(F)(F)F [Example 70, [5-Methanesulfonyl-2-((S)-2,2,2-trifluoro-1-methyl-ethoxy)-phenyl]-{4-[5-(2,2,2-trifluoro-ethyl)-thiazol-2-yl]-piperazin-1-yl}-methanone] | 0.057
19 | C[C@@H](Oc1ccc(S(C)(=O)=O)cc1C(=O)N1CCN(c2ncc(CC(F)(F)F)s2)CC1)C(F)(F)F [Example 71, [5-Methanesulfonyl-2-((R)-2,2,2-trifluoro-1-methyl-ethoxy)-phenyl]-{4-[5-(2,2,2-trifluoro-ethyl)-thiazol-2-yl]-piperazin-1-yl}-methanone] | 0.069
20 | CCS(=O)(=O)c1ccc(OC(C)C(F)(F)F)c(C(=O)N2CCN(c3ncc(C(F)(F)F)s3)CC2)c1 (stereo not drawn) [Example 74, [5-Ethanesulfonyl-2-(2,2,2-trifluoro-1-methyl-ethoxy)-phenyl]-[4-(5-trifluoromethyl-thiazol-2-yl)-piperazin-1-yl]-methanone] | 0.031
21 | CC[C@@H](C)Oc1ccc(S(C)(=O)=O)cc1C(=O)N1CCN(c2ncc(C(F)(F)F)s2)CC1 [Example 77, (2-((R)-sec-Butoxy)-5-methanesulfonyl-phenyl)-[4-(5-trifluoromethyl-thiazol-2-yl)-piperazin-1-yl]-methanone] | 0.1
22 | CC[C@H](C)Oc1ccc(S(C)(=O)=O)cc1C(=O)N1CCN(c2ncc(C(F)(F)F)s2)CC1 [Example 78, (2-((S)-sec-Butoxy)-5-methanesulfonyl-phenyl)-[4-(5-trifluoromethyl-thiazol-2-yl)-piperazin-1-yl]-methanone] | 0.089
23 | Cc1nc(N2CCN(C(=O)c3cc(S(C)(=O)=O)ccc3OC(C)C)CC2)sc1C(F)(F)F [Example 79, (2-Isopropoxy-5-methanesulfonyl-phenyl)-[4-(4-methyl-5-trifluoromethyl-thiazol-2-yl)-piperazin-1-yl]-methanone] | 0.067
24 | Cc1nc(N2CCN(C(=O)c3cc(S(C)(=O)=O)ccc3O[C@@H](C)C(F)(F)F)CC2)sc1C(F)(F)F [Example 80, [5-Methanesulfonyl-2-((S)-2,2,2-trifluoro-1-methyl-ethoxy)-phenyl]-[4-(4-methyl-5-trifluoromethyl-thiazol-2-yl)-piperazin-1-yl]-methanone] | 0.046
